Reference: patent publication EP0674651B1, “SUBSTITUTED 6-AZAANDROSTENONES” (priority 1992, dated 1994)
Like-named read-outs stand apart in the source and are kept apart here.

Key:
[1] = target: T1, human type 2 5α-reductase (Homo sapiens, UniProt P31213); test: 5α-reductase in vitro inhibitory activity, human type 2
T1 sequence (P31213 1-254): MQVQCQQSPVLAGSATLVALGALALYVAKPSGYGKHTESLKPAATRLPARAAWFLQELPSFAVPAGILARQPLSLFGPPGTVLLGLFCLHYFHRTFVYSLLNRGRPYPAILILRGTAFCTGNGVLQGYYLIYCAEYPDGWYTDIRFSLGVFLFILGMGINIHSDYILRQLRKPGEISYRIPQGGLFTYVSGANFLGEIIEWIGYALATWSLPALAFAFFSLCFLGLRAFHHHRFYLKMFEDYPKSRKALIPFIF

[2] = target: T2, human type 1 5α-reductase (Homo sapiens, UniProt P18405); test: 5α-reductase in vitro inhibitory activity, human type 1
T2 sequence (P18405 1-259): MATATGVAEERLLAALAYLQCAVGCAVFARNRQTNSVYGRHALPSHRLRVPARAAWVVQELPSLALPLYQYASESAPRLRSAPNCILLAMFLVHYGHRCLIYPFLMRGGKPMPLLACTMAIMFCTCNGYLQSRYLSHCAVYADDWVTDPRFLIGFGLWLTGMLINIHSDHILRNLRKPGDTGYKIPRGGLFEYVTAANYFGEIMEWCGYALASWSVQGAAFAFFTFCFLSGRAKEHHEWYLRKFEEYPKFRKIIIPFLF

[3] = target: Rat Prostatic 5α-reductase; test: 5α-reductase in vitro inhibitory activity, rat prostatic; conditions: read-out: IC50 Rat Prostatic; microsomes derived from prostate tissue from the rat
Method: Microsomes were prepared by homogenization of the tissue or cells, followed by differential centrifugation of the homogenate. […] Corresponding incubations were carried out with no test compound as a control study.
The percentage of conversion of testosterone to DHT in the presence of test compounds compared to the corresponding conversion in the control study was estimated using high pressure liquid chromatography (HPLC) with radiochemical detection.

IC50 [1] [µM]	IC50 [2] [µM]	IC50 [3] [µM]	Compound	IC50 ([1]; read-out: IC50 Human Type 2, microsomes, preincubated 20 minutes at pH 6.0, 8nM testosterone, 1 mM NADPH) [µM]	IC50 ([2]; read-out: IC50 Human Type 1, microsomes of recombinant baculovirus infected SF9 cells, preincubated 10 minutes at pH 7.0, 100nM testosterone, 1 mM NADPH) [µM]
< 0.01	0.01 to 0.1	< 0.01	C[C@]12CC[C@H]3[C@@H](CNC4=CC(=O)CC[C@@]43C)[C@@H]1CC[C@@H]2C(=O)NN(c1ccccc1)c1ccccc1 [Compound 25, 17β-N-(2,2-Diphenyl)-hydrazidyl-6-azaandrost-4-en-3-one]	–	–
< 0.01	< 0.01	0.01 to 0.1	C[C@]12CC[C@H]3[C@@H](CNC4=CC(=O)CC[C@@]43C)[C@@H]1CC[C@@H]2C(=O)Nc1cc(C(F)(F)F)ccc1C(F)(F)F [Compound 50, 17β-N-(2,5-Ditrifluoromethyl)phenyl-carbamoyl-6-azaandrost-4-en-3-one]	–	–
< 0.01	0.01 to 0.1	< 0.01	C[C@]12CC[C@H]3[C@@H](CNC4=CC(=O)CC[C@@]43C)[C@@H]1CC[C@@H]2C(=O)NC(Cc1ccccc1)c1ccccc1 (stereo partly drawn) [Compound 17, 17β-N-(α-Phenyl)phenethyl-carbamoyl-6-azaandrost-4-en-3-one]	–	–
0.01 to 0.1	0.01 to 0.1	< 0.01	C[C@]12CC[C@H]3[C@@H](CNC4=CC(=O)CC[C@@]43C)[C@@H]1CC[C@@H]2COC(=O)C(c1ccccc1)c1ccccc1 [Compound 28, 17β-Hydroxymethyl-(2,2-diphenylacetate)-6-azaandrost-4-en-3-one]	–	–
< 0.01	< 0.01	< 0.01	C[C@]12CC[C@H]3[C@@H](CNC4=CC(=O)CC[C@@]43C)[C@@H]1CC[C@@H]2C(=O)CC1CCCCC1 [Compound 2, 17β-(1-Oxo-2-cyclohexylethyl)-6-azaandrost-4-en-3-one]	–	–
< 0.01	0.01 to 0.1	< 0.01	C[C@]12CC[C@H]3[C@@H](CNC4=CC(=O)CC[C@@]43C)[C@@H]1CC[C@@H]2C(=O)NCC(c1ccccc1)c1ccccc1 [Compound 22, 17β-N-(2,2-Diphenyl)ethyl-carbamoyl-6-azaandrost-4-en-3-one]	–	–
< 0.01	> 0.1	< 0.01	C[C@]12CC[C@H]3[C@@H](CNC4=CC(=O)CC[C@@]43C)[C@@H]1CC[C@@H]2C(=O)Nc1cccc2c1Cc1ccccc1-2 [Compound 15, 17β-N-1-Fluorenyl-carbamoyl-6-azaandrost-4-en-3-one]	–	–
< 0.01	> 0.1	0.01 to 0.1	C[C@]12CC[C@H]3[C@@H](CNC4=CC(=O)CC[C@@]43C)[C@@H]1CC[C@@H]2C(=O)NC1c2ccccc2-c2ccccc21 [Compound 1, 17β-N-9-Fluorenyl-carbamoyl-6-azaandrost-4-en-3-one]	–	–
0.01 to 0.1	> 0.1	> 0.1	CC(C)(C)C1CCC(NC(=O)[C@H]2CC[C@H]3[C@@H]4CNC5=CC(=O)CC[C@]5(C)[C@H]4CC[C@]23C)CC1 (stereo partly drawn) [Compound 51, 17β-N-(4-t-Butyl)cyclohexyl-carbamoyl-6-azaandrost-4-en-3-one]	–	–
< 0.01	0.01 to 0.1	> 0.1	C[C@]12CC[C@H]3[C@@H](CNC4=CC(=O)CC[C@@]43C)[C@@H]1CC[C@@H]2COC(=O)C12CC3CC(CC(C3)C1)C2 [Compound 38, 17β-Hydroxymethyl-(1-adamantylcarboxylate)-6-azaandrost-4-en-3-one]	–	–
< 0.01	0.01 to 0.1	< 0.01	C[C@]12CC[C@H]3[C@@H](CNC4=CC(=O)CC[C@@]43C)[C@@H]1CC[C@@H]2C(=O)NC(c1ccc(F)cc1)c1cccs1 (stereo partly drawn) [Compound 18, 17β-N-(4-Fluorophenyl)(2-thiophene)methyl-carbamoyl-6-azaandrost-4-en-3-one]	–	–
< 0.01	0.01 to 0.1	< 0.01	CC12CCC(=O)C=C1NCC1C2CCC2(C)C(C(=O)NC(c3ccccc3)c3ccc(Cl)cc3)CCC12 (stereo not drawn) [Compound 11, 17β-N-(4-Chlorophenyl)(phenyl)methyl-carbamoyl-6-azaandrost-4-en-3-one]	–	–
< 0.01	0.01 to 0.1	0.01 to 0.1	C[C@]12CC[C@H]3[C@@H](CNC4=CC(=O)CC[C@@]43C)[C@@H]1CC[C@@H]2C(=O)NCc1ccc(C(F)(F)F)cc1 [Compound 30, 17β-N-(4-Trifluoromethylphenyl)methyl-carbamoyl-6-azaandrost-4-en-3-one]	–	–
0.01 to 0.1	> 0.1	0.01 to 0.1	CC12CCC(=O)C=C1NCC1C2CCC2(C)C(C(=O)Nc3ccc(N4CCOCC4)cc3)CCC12 (stereo not drawn) [Compound 5, 17β-N-Phenyl-(4-morpholino)-carbamoyl-6-azaandrost-4-en-3-one]	–	–
< 0.01	0.01 to 0.1	< 0.01	C[C@]12CC[C@H]3[C@@H](CNC4=CC(=O)CC[C@@]43C)[C@@H]1CC[C@@H]2C(=O)NC(C1CCCCC1)C1CCCCC1 [Compound 34, 17β-N-(Dicyclohexyl)methyl-carbamoyl-6-azaandrost-4-en-3-one]	–	–
< 0.01	< 0.01	< 0.01	CC(C)c1cc(Br)c(NC(=O)[C@H]2CC[C@H]3[C@@H]4CNC5=CC(=O)CC[C@]5(C)[C@H]4CC[C@]23C)c(Br)c1 [Compound 49, 17β-N-(2,6-Dibromo-4-isopropyl)phenyl-carbamoyl-6-azaandrost-4-en-3-one]	–	–
< 0.01	0.01 to 0.1	0.01 to 0.1	C[C@]12CC[C@H]3[C@@H](CNC4=CC(=O)CC[C@@]43C)[C@@H]1CC[C@@H]2C(=O)Nc1ccccc1Br [Compound 52, 17β-N-(2-Bromo)phenyl-carbamoyl-6-azaandrost-4-en-3-one]	–	–
0.01 to 0.1	0.01 to 0.1	< 0.01	CC(C)(C)C(=O)OCC1CCC2C3CNC4=CC(=O)CCC4(C)C3CCC12C (stereo not drawn) [Compound 3, 17β-Hydroxymethyl-(trimethylacetate)-6-azaandrost-4-en-3-one]	–	–
< 0.01	> 0.1	0.01 to 0.1	CC12CCC(=O)C=C1NCC1C2CCC2(C)C(C(=O)Nc3ccc4c(c3)OCO4)CCC12 (stereo not drawn) [Compound 7, 17β-N-(3,4-Methylenedioxy)phenyl-carbamoyl-6-azaandrost-4-en-3-one]	–	–
< 0.01	< 0.01	0.01 to 0.1	CC(C)(C)c1ccc(C(C)(C)C)c(NC(=O)C2CCC3C4CNC5=CC(=O)CCC5(C)C4CCC23C)c1 (stereo not drawn) [Compound 10, 17β-N-(2,5-Di-t-butyl)phenyl-carbamoyl-6-azaandrost-4-en-3-one]	–	–
< 0.01	0.01 to 0.1	< 0.01	Cc1cc(Br)cc(C)c1NC(=O)[C@H]1CC[C@H]2[C@@H]3CNC4=CC(=O)CC[C@]4(C)[C@H]3CC[C@]12C [Compound 46, 17β-N-(2,6-Dimethyl-4-bromo)phenyl-carbamoyl-6-azaandrost-4-en-3-one]	–	–
< 0.01	< 0.01	–	CC(C)(C)c1ccc(C(F)(F)F)cc1NC(=O)[C@H]1CC[C@H]2[C@@H]3CNC4=C(Cl)C(=O)CC[C@]4(C)[C@H]3CC[C@]12C [Compound 127, 17β-N-(2-t-Butyl-5-trifluoromethyl)phenyl-carbamoyl-6-azaandrost-4-chloro-4-en-3-one]	–	–
< 0.01	< 0.01	–	CC(C)(C)c1cc(NC(=O)[C@H]2CC[C@H]3[C@@H]4CNC5=CC(=O)CC[C@]5(C)[C@H]4CC[C@]23C)cc(C(C)(C)C)c1 [Compound 86, 17β-N-(3,5-Di-t-butyl)phenyl-carbamoyl-6-azaandrost-4-en-3-one]	–	–
< 0.01	0.01 to 0.1	–	CCOC(=O)c1ccccc1NC(=O)[C@H]1CC[C@H]2[C@@H]3CNC4=CC(=O)CC[C@]4(C)[C@H]3CC[C@]12C [Compound 114, 17β-N-(2-Carboethoxy)phenyl-carbamoyl-6-azaandrost-4-en-3-one]	–	–
< 0.01	> 0.1	–	CC(C)(NC(=O)[C@H]1CC[C@H]2[C@@H]3CNC4=CC(=O)CC[C@]4(C)[C@H]3CC[C@]12C)c1ccccc1 [Compound 63, 17β-N-(1-Methyl-1-phenyl)ethyl-carbamoyl-6-azaandrost-4-en-3-one]	–	–
< 0.01	0.01 to 0.1	–	C[C@]12CC[C@H]3[C@@H](CNC4=CC(=O)CC[C@@]43C)[C@@H]1CC[C@@H]2C(=O)Nc1c(Br)cc(Cl)cc1Br [Compound 69, 17β-N-(2,6-Dibromo-4-chloro)phenyl-carbamoyl-6-azaandrost-4-en-3-one]	–	–
< 0.01	< 0.01	–	CC(C)(C)c1ccc(Br)cc1NC(=O)[C@H]1CC[C@H]2[C@@H]3CNC4=CC(=O)CC[C@]4(C)[C@H]3CC[C@]12C [Compound 74, 17β-N-(5-Bromo-2-t-butyl)phenyl-carbamoyl-6-azaandrost-4-en-3-one]	–	–
< 0.01	< 0.01	–	C[C@]12CC[C@H]3[C@@H](CNC4=CC(=O)CC[C@@]43C)[C@@H]1CC[C@@H]2C(=O)NC1(c2cccc(C(F)(F)F)c2)CCCC1 [Compound 102, 17β-N-1-(3-Trifluoromethylphenyl)cyclopentyl-carbamoyl-6-azaandrost-4-en-3-one]	–	–

Compound	IC50 [1] [µM]	IC50 [2] [µM]	IC50 [3] [µM]	IC50 ([1]; read-out: IC50 Human Type 2, microsomes, preincubated 20 minutes at pH 6.0, 8nM testosterone, 1 mM NADPH) [µM]	IC50 ([2]; read-out: IC50 Human Type 1, microsomes of recombinant baculovirus infected SF9 cells, preincubated 10 minutes at pH 7.0, 100nM testosterone, 1 mM NADPH) [µM]
17β-N-(2-t-Butyl-5-(N-methyl)methylsulfonamide)phenyl-6-azaandrost-4-en-3-one [Compound 91]	–	–	0.01 to 0.1	< 0.01	0.01 to 0.1
